Results from ChEMBL document CHEMBL1201862, “PubChem BioAssay data set” (2004).
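Grown in 96-well plates, cells were treated for 48 hours with each compound at five concentrations. Insufficient inhibition: endpoint recorded as highest concentration tested. The concentration for 50% growth inhibition is given as GI50.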 Active and inactive are the calls of the source. Cut-off read from the data, not from the text of the source: active = GI50 up to about 1.1 µM and inactive = higher.

What was measured:
Experiment in all cases: NCI-60 cell line screen, 48 h
[1] = system: MDA-MB-231
[2] = system: CCRF-CEM
[3] = system: EKVX
[4] = system: HOP-92
[5] = system: K562
[6] = system: SN12C
[7] = system: NCI-H23
[8] = system: CAKI-1
[9] = system: MCF7
[10] = system: OVCAR-8
[11] = system: A498
[12] = system: HCC 2998
[13] = system: UACC-257
[14] = system: DU-145
[15] = system: TK-10
[16] = system: ACHN
[17] = system: OVCAR-3
[18] = system: SW-620
[19] = system: SF-268
[20] = system: SR

Row | Compound | GI50 [1] | GI50 [2] | GI50 [3] | GI50 [4] | GI50 [5] | GI50 [6] | GI50 [7] | GI50 [8] | GI50 [9] | GI50 [10] | GI50 [11] | GI50 [12] | GI50 [13] | GI50 [14] | GI50 [15] | GI50 [16] | GI50 [17] | GI50 [18] | GI50 [19] | GI50 [20]
1 | OC12COc3ccccc3C1Oc1ccccc1C2 (stereo unspecified) | > 100 µM (inactive) | > 100 µM (inactive) | > 100 µM (inactive) | > 100 µM (inactive) | > 100 µM (inactive) | > 100 µM (inactive) | > 100 µM (inactive) | > 100 µM (inactive) | > 100 µM (inactive) | > 100 µM (inactive) | > 100 µM (inactive) | > 100 µM (inactive) | > 100 µM (inactive) | > 100 µM (inactive) | > 100 µM (inactive) | > 100 µM (inactive) | > 100 µM (inactive) | > 100 µM (inactive) | > 100 µM (inactive) | 
2 | CN(C)CCCNC(=O)CCNC(=O)c1cc(NC(=O)c2cc(NC(=O)c3cc(NC(=O)c4nccn4C)cn3C)cn2C)cn1C | > 100 µM (inactive) | > 46.8 µM (inactive) | > 100 µM (inactive) | > 100 µM (inactive) | > 100 µM (inactive) | > 100 µM (inactive) | > 100 µM (inactive) | > 100 µM (inactive) | > 100 µM (inactive) | > 100 µM (inactive) | > 100 µM (inactive) | > 100 µM (inactive) | > 100 µM (inactive) | > 100 µM (inactive) | > 100 µM (inactive) | > 100 µM (inactive) | > 78.2 µM (inactive) | > 100 µM (inactive) | 44.8 µM (inactive) | 
3 | COc1ccc(N(C)S(=O)(=O)c2ccccc2)cc1 | > 100 µM (inactive) | > 100 µM (inactive) | > 100 µM (inactive) |  | 28.5 µM (inactive) | > 100 µM (inactive) | 67.1 µM (inactive) | > 100 µM (inactive) | > 100 µM (inactive) | > 100 µM (inactive) |  | 56 µM (inactive) | > 100 µM (inactive) | > 100 µM (inactive) | > 100 µM (inactive) | > 100 µM (inactive) | > 100 µM (inactive) | > 100 µM (inactive) | > 100 µM (inactive) | 87.9 µM (inactive)
4 | CCOC(=O)N(C)C(=C(F)F)C(F)(F)F | 28.5 µM (inactive) | 19.8 µM (inactive) | 27.6 µM (inactive) | 25.4 µM (inactive) | 22.1 µM (inactive) | > 10 µM (inactive) | 20.5 µM (inactive) |  | 36.6 µM (inactive) | 23.8 µM (inactive) |  | 20.6 µM (inactive) | 31.5 µM (inactive) | 33.2 µM (inactive) | 27.8 µM (inactive) | > 10 µM (inactive) | 36 µM (inactive) | 21.2 µM (inactive) | 25.2 µM (inactive) | 3.95 µM (inactive)
5 | CC1(C)CC2=C(Sc3ccccc3N2)C(=O)C1C(=O)C(=O)Nc1cccc([N+](=O)[O-])c1 (stereo unspecified) | 99.3 µM (inactive) | 0.0738 µM (active) | > 100 µM (inactive) | > 100 µM (inactive) | 66.8 µM (inactive) | > 100 µM (inactive) | > 100 µM (inactive) | > 100 µM (inactive) | > 100 µM (inactive) | > 100 µM (inactive) | > 100 µM (inactive) | > 100 µM (inactive) | > 100 µM (inactive) | > 100 µM (inactive) | > 100 µM (inactive) | > 100 µM (inactive) | 85.5 µM (inactive) | > 100 µM (inactive) | > 100 µM (inactive) | 
6 | COC(=O)c1ccc2c(c1)CC1(C2)Cc2ccc3c(c2C1)CCC3 (stereo unspecified) | 5.07 µM (inactive) | 19.3 µM (inactive) | 51.3 µM (inactive) | 0.855 µM (active) | 6.64 µM (inactive) | 18.6 µM (inactive) | 57.3 µM (inactive) | 0.0543 µM (active) | 23.3 µM (inactive) | 69.2 µM (inactive) |  | 43 µM (inactive) | 20.2 µM (inactive) | 53.6 µM (inactive) | > 100 µM (inactive) | 57 µM (inactive) | 80.2 µM (inactive) | 14.4 µM (inactive) | 93.8 µM (inactive) | 20.8 µM (inactive)
7 | COC1CC(OC2C(C)OC(OC3C(C)OC(OC4C(O)CC(O[C@H]5CC[C@@]6(C)C(=CC[C@]7(O)[C@@H]6C[C@@H](OC(=O)/C=C/c6ccccc6)[C@@]6(C)[C@]7(O)CC[C@@]6(O)C(C)=O)C5)OC4C)CC3OC)CC2OC)OC(C)C1O (stereo partly specified) | > 6.25 µM (inactive) | > 6.25 µM (inactive) | > 6.25 µM (inactive) | > 6.25 µM (inactive) | > 6.25 µM (inactive) | > 6.25 µM (inactive) | > 6.25 µM (inactive) | > 6.25 µM (inactive) | > 6.25 µM (inactive) | > 6.25 µM (inactive) |  | > 6.25 µM (inactive) | > 6.25 µM (inactive) | > 6.25 µM (inactive) | > 6.25 µM (inactive) | > 6.25 µM (inactive) | > 6.25 µM (inactive) | > 6.25 µM (inactive) | > 6.25 µM (inactive) | > 6.25 µM (inactive)
